We go through 16 compounds from article PMC6321058, “Crystal Structures and Cytotoxicity of ent-Kaurane-Type Diterpenoids from Two Aspilia Species” (Molecules, 2018).

A short description of data set [1]: MTT cytotoxicity assay, BEAS-2B. Format: cell-based. The conditions noted are these: human, normal cell line BEAS-2B, 0.19–100 μM. As for the experimental part: (§1) Reagent and cells. Adenocarcinomic human alveolar basal epithelial (A549) and human hepatoma (HepG2) cancer cell lines, immortalized normal human liver (LO2), human bronchial epithelial (BEAS-2B), and fibroblast-like CCD19Lu cells were purchased from [NT], Manassas, VA, USA). The cells were cultured in RPMI-1640 medium supplemented with 10% fetal bovine serum and antibiotics: Penicillin (50 U/Ml) and streptomycin (50 μg/mL; Invitrogen, Paisley, Scotland, UK). All cells were incubated at 37 °C in a 5% humidified CO2 incubator). All test compounds were dissolved in DMSO at a final concentration of 50 mM and stored at -20 °C before use. […] Briefly, 5 × 10^3 cells per well were seeded in 96-well plates before drug treatments. […] Cells without drug treatment were used as controls. Subsequently, 10 μL of 5 mg/mL MTT solution was added to each well and incubated at 37 °C for 4 h, followed by the addition of 100 μL solubilization buffer (12 mM HCl in a solution of 10% SDS) and overnight incubation. The absorbance, A570 nm, was then determined in each well on the next day. The percentage cell viability was calculated using the expression: % Viability = Atreated/ Acontrol × 100, and was given as cytotoxicity in Table 3.
For orientation: Formazan colour is commonly taken as a measure of viable cells.

Data set [2] can be described thus: MTT cytotoxicity assay, LO2. The conditions noted are these: human, normal cell line LO2, MTT, 0.19–100 μM. Format: cell-based. As to the method:
as §1

A short description of data set [3]: MTT cytotoxicity assay, A549. Format: cell-based. The conditions noted are these: human, cancer cell line A549, MTT, 0.19–100 μM. As for the experimental part:
as §1

A short description of data set [4]: MTT cytotoxicity assay, Hep-G2. The conditions noted are these: human, cancer cell line Hep-G2, MTT, 0.19–100 μM. Format: cell-based. As for the experimental part: as §1
Where [5] appears, read: BEAS-2B cells (human bronchial epithelial).
[6] abbreviates: LO2 cells (immortalized normal human liver).

The term IC50 denotes the concentration needed to halve the response being measured. Read a high IC50 as weaker potency in that assay. For orientation: melting point means the temperature of the solid-liquid transition. For `C=C1CC23CCC4C(C)(C(=O)O)CCCC4(C)C2=CC(OC)C1C3` (stereo not drawn) [Compound 1, 12α-methoxy-ent-kaur-9(11),16-dien-19-oic acid], the melting point fell in the range of 184 to 186 °C. The compound further returned an IC50 at 72 h in data set [1] greater than 100 µM. In data set [2], this compound gave an IC50 at 72 h greater than 100 µM. Further, in data set [3], the IC50 at 72 h is greater than 100 µM. This compound had an IC50 at 72 h in data set [4] of 27.3 ± 1.9 µM.
As for `C[C@@]12CCC[C@@](C)(C(=O)O)[C@H]1CC[C@@]13C[C@@H](CC[C@H]12)[C@](C)(O)C3` [Compound 2, (16R)-hydroxy-ent-kauran-19-oic acid], the IC50 at 72 h in data set [1], in data set [2], in data set [3] and in data set [4] was greater than 100 µM each time.
With `C=C1C2CCC3(O)C4(C)CCCC(C)(C(=O)O)C4CCC3(C2)C1OC(=O)C(C)=CC` (stereo not drawn) [Compound 3, 9β-hydroxy-15α-angeloyloxy-ent-kaur-16-en-19-oic acid], the IC50 at 72 h was 89.9 ± 2 µM in data set [1] (setting [5]), 57.2 ± 1.2 µM in data set [2] (setting [6]), greater than 100 µM in data set [3] and 24.7 ± 2.8 µM in data set [4] (HepG2 cells (human hepatoma)).
The like results for `C=C1C2CCC3(O)C4(C)CCCC(C)(C(=O)OC)C4CCC3(C2)C1OC(=O)C(C)=CC` (stereo not drawn) [Compound 4, methyl-9β-hydroxy-15α-angeloyloxy-ent-kaur-16-en-19-oate] were, in that order, greater than 100 µM, greater than 100 µM, greater than 100 µM and greater than 100 µM.
`CC=C(C)C(=O)OC1C23CCC4C(C)(C(=O)O)CCCC4(C)C2CCC(C3)C12CO2` (stereo not drawn) [Compound 5, 15α-angeloyloxy-16β,17-epoxy-ent-kauran-19-oic acid]: the melting point is 242 to 243 °C. The IC50 at 72 h in data set [1] (setting [5]) is greater than 100 µM. This compound also showed an IC50 at 72 h in data set [2] (setting [6]) greater than 100 µM. Also, in data set [3], the IC50 at 72 h was 30.7 ± 1.7 µM. Besides, in data set [4] (HepG2 cells (human hepatoma)), the IC50 at 72 h is greater than 100 µM.
For `C=C1C[C@@]23CC[C@@H]4[C@](C)(C(=O)O)CCC[C@@]4(C)C2=CC[C@@H]1C3` [Compound 6, ent-kaur-9(11),16-dien-19-oic acid], the IC50 at 72 h in data set [1], in data set [2], in data set [3] and in data set [4] was greater than 100 µM throughout.
Consider `CO[C@@]1(C)C[C@@]23CC[C@@H]4[C@](C)(C(=O)O)CCC[C@@]4(C)C2=CC[C@@H]1C3` [Compound 6a], for which the IC50 at 72 h in data set [1] (setting [5]), in data set [2] (setting [6]), in data set [3] and in data set [4] (HepG2 cells (human hepatoma)) was greater than 100 µM each time.
In the case of `C[C@@H]1C[C@@]23CC[C@@H]4[C@](C)(C(=O)O)CCC[C@@]4(C)C2=CC[C@@H]1C3` [Compound 6b, ent-kaur-9(11)-en-19-oic acid], the IC50 at 72 h in data set [1] (setting [5]), in data set [2] (setting [6]), in data set [3] and in data set [4] (HepG2 cells (human hepatoma)) was greater than 100 µM in each case.
Regarding `C=C1C2CCC3C4(C)CCCC(C)(C(=O)O)C4CCC3(C2)C1OC(=O)C(C)=CC` (stereo not drawn) [Compound 7, 15α-angeloyloxy-ent-kaur-16-en-19-oic acid], the IC50 at 72 h in data set [1] (setting [5]), in data set [2] (setting [6]), in data set [3] and in data set [4] (HepG2 cells (human hepatoma)) was greater than 100 µM in each case.
On to `C=C1C[C@@]23CC[C@@H]4C(C)(C)CCC[C@@]4(C)C2=CC(=O)C1C3` [Compound 9, ent-kaur-9(11),16-dien-12-one], for which the IC50 at 72 h is greater than 100 µM in data set [1] (setting [5]), 75.3 ± 2.8 µM in data set [2] (setting [6]), greater than 100 µM in data set [3] and greater than 100 µM in data set [4] (HepG2 cells (human hepatoma)).
As to `C=C1CC23CCC4C(C)(C(=O)OC)CCCC4(C)C2CCC1C3` (stereo not drawn) [Compound 10, methyl-ent-kaur-16-en-19-oate], the IC50 at 72 h in data set [1] (setting [5]), in data set [2] (setting [6]), in data set [3] and in data set [4] (HepG2 cells (human hepatoma)) was greater than 100 µM throughout.
On to `C=C1CC23CCC4C(C)(C(=O)O)CCCC4(C)C2CCC1C3` (stereo not drawn) [Compound 11, ent-kaur-16-en-19-oic acid], for which the IC50 at 72 h in data set [1] (setting [5]), in data set [2] (setting [6]), in data set [3] and in data set [4] (HepG2 cells (human hepatoma)) was greater than 100 µM in each case.
In the case of `CC[C@H](/C=C/[C@@H](C)[C@H]1CC[C@H]2[C@@H]3CC=C4C[C@@H](O)CC[C@]4(C)[C@H]3CC[C@]12C)C(C)C` [Compound 14, stigmasta-5,22(E)-dien-3β-ol], the IC50 at 72 h in data set [1], in data set [2], in data set [3] and in data set [4] was greater than 100 µM in each case.
Take `C=C1C2CCC3C4(C)CCCC(C)(C(=O)OC)C4CCC3(C2)C1OC(=O)C(C)=CC` (stereo not drawn) [Compound 17, methyl-15α-angeloyloxy-ent-kaur-16-en-19-oate]: the IC50 at 72 h in data set [1] (setting [5]), in data set [2] (setting [6]), in data set [3] and in data set [4] (HepG2 cells (human hepatoma)) was greater than 100 µM each time.
On to `C=C1CC23CCC4C(C)(C(=O)O)CCCC4(C)C2=CC(=O)C1C3` (stereo not drawn) [Compound 18, 12-oxo-ent-kaur-9(11),16-dien-19-oic acid], for which the IC50 at 72 h in data set [1] stood at 38.6 ± 2.5 µM; in data set [2] it was 30 ± 1.7 µM; in data set [3], 80.5 ± 1.8 µM; in data set [4], 81.3 ± 0.3 µM.
With `CC(=O)O[C@H]1C(=O)[C@@]2(C)[C@H]([C@H](OC(=O)c3ccccc3)[C@]3(O)C[C@H](OC(=O)[C@H](O)[C@@H](NC(=O)c4ccccc4)c4ccccc4)C(C)=C1C3(C)C)[C@]1(OC(C)=O)CO[C@@H]1C[C@@H]2O` [Paclitaxel, reference compound], the IC50 at 72 h in data set [1] (setting [5]) is less than 0.1 µM; in data set [2] (setting [6]) it was less than 0.1 µM; in data set [3] it was 0.0033 µM; in data set [4] (HepG2 cells (human hepatoma)), 0.19 µM.
